In US8710089B2, “Triazole derivatives as ghrelin analogue ligands of growth hormone secretagogue receptors” (Zentaris GmbH, priority 2005, dated 2014):

Columns and labels:
[1] = tested on: GH concentration in the plasma of male rat pups; assay: In vivo GH concentration in the plasma of male rat pups; set-up: species or system rat (Sprague-Dawley); settings: rat pup plasma, killed 15 min later
Experimental: IV) Assaying In Vivo GH Concentration in the Plasma of Male Rat Pups
GH plasma concentrations of male rat pubs were assayed to characterize the modulation effect (antagonistic or agonistic) of the compounds of the invention being GHS receptor analogue ligands.
In principle, assaying in vivo GH concentration in rat plasma was performed according to Torsello et al. (Eur. J. Pharmacol. 1998, 360: 123-129).
Male Sprague-Dawley rat pups (Charles River, Calco, Italy) were separated on postnatal day seven from their mothers and randomly redistributed to the dams, so that each one nurtured ten to twelve pups. On postnatal day ten, the pups were again separated from their mothers.
The compounds to be tested were dissolved in solvent [DMSO (0.4% of total volume), distilled water (4% of total volume), brought to the final volume with physiological saline].
One hour after separation from their mothers, the pups were given isovolumetric amounts of the compounds to be tested (160 μg/kg body weight s.c.) at time −10 min and then administered with hexarelin (80 μg/kg body weight s.c.) or solvent at time 0 min before being killed 15 min later by decapitation. Trunk blood was collected, immediately centrifuged and plasma samples were stored at −20° C. until assayed for the determination of GH concentrations.
Plasma GH concentrations were measured using a rat growth hormone enzyme immunoassay kit (SPIbio, France, cat. no. 589601) according to the manufacturer's instructions. Values are expressed in terms of NIDDK rat-GH-RP2 standard (potency 2 IU/mg) as ng/mL of plasma
The limit of detection calculated as the concentration producing 15% displacement of initial tracer was 0.5 ng/ml; intra-assay and inter-assay coefficient of variation are 4% (n=24) and 14% (n=9).
In the following table 3 results obtained for selected compounds of the invention are presented.

human GHS-R 1a = biological target: T1, human GHS-R 1a (Homo sapiens, UniProt Q92847); assay: GHS-R 1a receptor-ligand binding assay (membrane preparations from transfected LLC PK-1 cells); settings: displacement of 125I-His9-ghrelin (60 pM); membranes of LLC PK-1 cells transfected with human GHS-R 1a; mean of at least two independent experiments in triplicates
T1 construct: expressed in transfected cells; host or cells: LLC PK-1 porcine renal epithelial cells (ECACC No. 86121112), isolated plasma membranes
Method in brief: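 Membranes from LLC PK-1 cells expressing human GHS-R 1a incubated 60 min at 25 °C in 50 mM Tris pH 7.3, 5 mM MgCl2, 2.5 mM EDTA, bacitracin with 60 pM 125I-ghrelin and competitor; nonspecific binding with 10^-6 M ghrelin; filtration read-out.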

[2] = tested on: young-adult male Sprague-Dawley rats; assay: Feeding behavior (food intake) of young-adult male rats; assay type: in vivo, rat (Sprague-Dawley)
Experimental: V) Assaying the Feeding Behavior (Food Intake) of Young-Adult Male Rats
The impact of compounds of the invention being GHS receptor analogue ligands on the feeding behaviour, i.e. food intake, of young-adult male rats was assayed.
In principle, assaying the feeding behavior (food intake) of young-adult male rats was performed according to Torsello et al. (Eur. J. Pharmacol. 1998, 360: 123-129).
For the assay, young-adult male Sprague-Dawley rats (Charles River, Calco, Italy), weighing 200-250 g, were used.
Rats had 1 week of acclimation in individual home cages, and animal room conditions (22±2° C., 65% humidity, artificial light from 08.00 to 20.00 h). The following week, they were daily trained to mimic the experimental procedure. Rats maintained free access to dry pellets and tap water throughout the whole experimental period. At the end of training, rats were administered (around 10.00-11.00 a.m.) subcutaneously with the compounds to be tested (160 μg/kg body weight) and/or hexarelin (80 μg/kg body weight) and/or solvent [DMSO (0.4% of total volume), distilled water (4% of total volume), brought to the final volume with physiological saline].
Hexarelin was used to study the effects of the compounds to be tested on stimulated feeding behavior. Immediately after the injections, the animals were returned to their home cages, which contained a known amount of standard rat chow and ad libitum water. Every hour for the following 6 hours, the remaining food was carefully collected and weighed to the nearest 0.1 g. Food intake was normalized for the body weight of the rats and expressed as grams of food eaten per 100 g body weight of rats.
In the following table 4 results obtained for selected compounds of the invention are presented.

[3] = biological target: T2, Motilin-Receptor 1a (MTL-R1a) (Homo sapiens, UniProt O43193); assay: Motilin receptor-ligand binding assay (human recombinant HEK-293 cells); settings: 0.1 nM [125I] Motilin, read-out: MTL-R 1a IC50
T2 construct: expressed in transfected cells; host or cells: HEK-293 cells
Experimental: VI) Motilin Receptor-Ligand Binding Assay (Using Human Recombinant HEK-293 Cells)
Motilin Receptor binding/affinity studies were performed as described by Feighner S D et al. (Science 1999, 284: 2184-2188). The assays were run under the following conditions:
Compounds of the invention were tested in concentrations comprising 0.01 μM, 0.1 μM, 1 μM and 10 μM.
IC50 values were determined by a non-linear, least square regression analysis using Data Analysis Toolbox (MDL Information Systems, USA).
In the following table 5 results obtained for selected compounds of the invention are presented.

[4] = compound 160 μg/kg s.c. at -10 min + hexarelin 80 μg/kg s.c. at 0 min
[5] = compound alone 160 μg/kg body weight s.c. at -10 min, solvent at 0 min
[6] = compound 160 μg/kg s.c. + hexarelin 80 μg/kg s.c.
[7] = compound alone, 160 μg/kg body weight s.c.

T1 sequence (Q92847 whole entry): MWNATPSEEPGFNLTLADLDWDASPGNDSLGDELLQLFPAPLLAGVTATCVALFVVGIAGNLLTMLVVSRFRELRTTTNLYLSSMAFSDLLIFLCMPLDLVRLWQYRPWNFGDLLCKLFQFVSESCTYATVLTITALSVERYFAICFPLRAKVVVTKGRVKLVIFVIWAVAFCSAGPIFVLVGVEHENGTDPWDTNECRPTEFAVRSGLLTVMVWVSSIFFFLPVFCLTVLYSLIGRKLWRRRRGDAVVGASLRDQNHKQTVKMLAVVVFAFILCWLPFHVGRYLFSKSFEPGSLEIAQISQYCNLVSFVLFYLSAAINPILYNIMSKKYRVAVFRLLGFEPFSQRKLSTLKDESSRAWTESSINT
T2 sequence (O43193 whole entry): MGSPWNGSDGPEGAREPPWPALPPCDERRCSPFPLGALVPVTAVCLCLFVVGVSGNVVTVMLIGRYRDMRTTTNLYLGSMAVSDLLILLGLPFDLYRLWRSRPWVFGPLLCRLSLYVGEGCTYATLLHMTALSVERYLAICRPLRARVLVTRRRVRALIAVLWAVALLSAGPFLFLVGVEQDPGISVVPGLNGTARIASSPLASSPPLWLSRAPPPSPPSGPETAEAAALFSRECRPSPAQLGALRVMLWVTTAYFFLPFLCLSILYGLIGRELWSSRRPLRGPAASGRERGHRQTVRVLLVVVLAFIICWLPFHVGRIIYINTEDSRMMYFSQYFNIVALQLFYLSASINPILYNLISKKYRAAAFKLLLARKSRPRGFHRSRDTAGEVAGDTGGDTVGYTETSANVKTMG

Compound: COc1ccc(Cn2c(CCc3c[nH]c4ccccc34)nnc2[C@@H](Cc2c[nH]c3ccccc23)NC(=O)C(C)(C)N)cc1 [compound 12, (R)—N-(1-(5-(2-(1H-indol-3-yl)ethyl)-4-(4-methoxybenzyl)-4H-1,2,4-triazol-3-yl)-2-(1H-indol-3-yl)ethyl)-2-amino-2-methylpropanamide]
- GH concentration [1, 4]: 200.0 ± 19.7 ng/mL
- GH concentration [1, 5]: 4.0 ± 0.12 ng/mL
- IC50 (human GHS-R 1a): 6 nM
- Cumulative food intake (after 2 hours) [2, 6]: 0.13 ± 0.07 g food/100 g body weight
- Cumulative food intake (after 6 hours) [2, 6]: 0.48 ± 0.22 g food/100 g body weight
- Cumulative food intake (after 2 hours) [2, 7]: 0.034 ± 0.011 g food/100 g body weight
- Cumulative food intake (after 6 hours) [2, 7]: 0.06 ± 0.019 g food/100 g body weight

Compound: COc1ccc(Cn2c(CCc3ccccc3)nnc2[C@@H](Cc2c[nH]c3ccccc23)NC(=O)C(C)(C)N)cc1 [compound 20, (R)—N-(1-(4-(4-methoxybenzyl)-5-phenethyl-4H-1,2,4-triazol-3-yl)-2-(1H-indol-3-yl)ethyl)-2-amino-2-methylpropanamide]
- GH concentration [1, 4]: 220.51 ± 15.52 ng/mL
- GH concentration [1, 5]: 5.27 ± 0.59 ng/mL
- IC50 (human GHS-R 1a): 14 nM
- Cumulative food intake (after 2 hours) [2, 6]: 0.53 ± 0.21 g food/100 g body weight
- Cumulative food intake (after 6 hours) [2, 6]: 0.63 ± 0.19 g food/100 g body weight
- Cumulative food intake (after 2 hours) [2, 7]: 0.01 g food/100 g body weight
- Cumulative food intake (after 6 hours) [2, 7]: 0.2 ± 0.19 g food/100 g body weight

Compound: COc1ccc(Cn2c(CCCc3ccccc3)nnc2[C@@H](Cc2c[nH]c3ccccc23)NC(=O)C(C)(C)N)cc1 [compound 22, (R)—N-(1-(4-(4-methoxybenzyl)-5-(3-phenylpropyl)-4H-1,2,4-triazol-3-yl)-2-(1H-indol-3-yl)ethyl)-2-amino-2-methylpropanamide]
- GH concentration [1, 4]: 239.91 ± 19.75 ng/mL
- GH concentration [1, 5]: 4.88 ± 0.33 ng/mL
- IC50 (human GHS-R 1a): 12 nM
- Cumulative food intake (after 2 hours) [2, 6]: 0.67 ± 0.12 g food/100 g body weight
- Cumulative food intake (after 6 hours) [2, 6]: 0.86 ± 0.18 g food/100 g body weight
- Cumulative food intake (after 2 hours) [2, 7]: 0.01 g food/100 g body weight
- Cumulative food intake (after 6 hours) [2, 7]: 0.44 ± 0.2 g food/100 g body weight

Compound: COc1ccc(Cn2c(CCc3ccccc3)nnc2[C@@H](Cc2c[nH]c3ccccc23)NC(=O)[C@H]2CCCN2)cc1 [compound 47, (R)—N—((R)-1-(4-(4-methoxybenzyl)-5-phenethyl-4H-1,2,4-triazol-3-yl)-2-(1H-indol-3-yl)ethyl)pyrrolidine-2-carboxamide]
- GH concentration [1, 4]: 160.857 ± 13.52 ng/mL
- GH concentration [1, 5]: 5.658 ± 1.192 ng/mL
- IC50 (human GHS-R 1a): 27 nM
- Cumulative food intake (after 2 hours) [2, 6]: 0.35 ± 0.201 g food/100 g body weight
- Cumulative food intake (after 6 hours) [2, 6]: 0.47 ± 0.1943 g food/100 g body weight
- Cumulative food intake (after 2 hours) [2, 7]: 0.006 ± 0.002 g food/100 g body weight
- Cumulative food intake (after 6 hours) [2, 7]: 0.02 ± 0 g food/100 g body weight

Compound: COc1ccc(Cn2c(CCc3ccccc3)nnc2[C@@H](Cc2c[nH]c3ccccc23)NC(=O)c2ccccn2)c(OC)c1 [compound 64, (R)—N-(1-(4-(2,4-dimethoxybenzyl)-5-phenethyl-4H-1,2,4-triazol-3-yl)-2-(1H-indol-3-yl)ethyl)picolinamide]
- IC50 [3]: 1390 nM
- GH concentration [1, 4]: 138.394 ± 14.580 ng/mL
- GH concentration [1, 5]: 13.056 ± 2.169 ng/mL
- IC50 (human GHS-R 1a): 1.1 nM
- Cumulative food intake (after 2 hours) [2, 6]: 0.012 ± 0.004 g food/100 g body weight
- Cumulative food intake (after 6 hours) [2, 6]: 0.021 ± 0.007 g food/100 g body weight
- Cumulative food intake (after 2 hours) [2, 7]: 0.012 ± 0.008 g food/100 g body weight
- Cumulative food intake (after 6 hours) [2, 7]: 0.039 ± 0.011 g food/100 g body weight

Compound: COc1ccc(Cn2c(CCc3c[nH]c4ccccc34)nnc2[C@@H](Cc2c[nH]c3ccccc23)NC(=O)c2cnccn2)c(OC)c1 [compound 71, (R)—N-(1-(5-(2-(1H-indol-3-yl)ethyl)-4-(2,4-dimethoxybenzyl)-4H-1,2,4-triazol-3-yl)-2-(1H-indol-3-yl)ethyl)pyrazine-2-carboxamide]
- GH concentration [1, 4]: 173.611 ± 18.444 ng/mL
- GH concentration [1, 5]: 15.326 ± 1.355 ng/mL
- IC50 (human GHS-R 1a): 19 nM
- Cumulative food intake (after 2 hours) [2, 6]: 0.117 ± 0.074 g food/100 g body weight
- Cumulative food intake (after 6 hours) [2, 6]: 0.20 ± 0.01 g food/100 g body weight
- Cumulative food intake (after 2 hours) [2, 7]: 0.522 ± 0.283 g food/100 g body weight
- Cumulative food intake (after 6 hours) [2, 7]: 0.53 ± 0.28 g food/100 g body weight

Compound: COc1ccc(Cn2c(CCc3c[nH]c4ccccc34)nnc2[C@@H](Cc2c[nH]c3ccccc23)NC(=O)C2CNCCN2)cc1 (stereo partly drawn) [compound 81]
- GH concentration [1, 4]: 216.575 ± 19.734 ng/mL
- GH concentration [1, 5]: 18.634 ± 2.933 ng/mL
- IC50 (human GHS-R 1a): 18 nM
- Cumulative food intake (after 2 hours) [2, 6]: 0.024 ± 0.0101 g food/100 g body weight
- Cumulative food intake (after 6 hours) [2, 6]: 0.116 ± 0.077 g food/100 g body weight
- Cumulative food intake (after 2 hours) [2, 7]: 0.017 ± 0.004 g food/100 g body weight
- Cumulative food intake (after 6 hours) [2, 7]: 0.03 ± 0 g food/100 g body weight

Compound: COc1ccc(Cn2c(CCc3c[nH]c4ccccc34)nnc2[C@@H](Cc2c[nH]c3ccccc23)NC(=O)[C@H]2CCCN2)cc1 [compound 90, (R)—N—((R)-1-(5-(2-(1H-indol-3-yl)ethyl)-4-(4-methoxybenzyl)-4H-1,2,4-triazol-3-yl)-2-(1H-indol-3-yl)ethyl)pyrrolidine-2-carboxamide]
- GH concentration [1, 4]: 218.844 ± 19.723 ng/mL
- GH concentration [1, 5]: 16.857 ± 2.152 ng/mL
- IC50 (human GHS-R 1a): 28 nM
- Cumulative food intake (after 2 hours) [2, 6]: 0.054 ± 0.041 g food/100 g body weight
- Cumulative food intake (after 6 hours) [2, 6]: 0.069 ± 0.041 g food/100 g body weight
- Cumulative food intake (after 2 hours) [2, 7]: 0.014 ± 0.001 g food/100 g body weight
- Cumulative food intake (after 6 hours) [2, 7]: 0.035 ± 0.003 g food/100 g body weight
